Measurements as given in patent US9358226B2, “Triarylmethane analogs and their use in treating cancers” (Emory University, priority 2007, dated 2016).

Tests used:
[1] = system: bloodstream form of T. brucei; test: Bloodstream form of T. brucei, live cells, overnight treatment; assay type: cell-based
Protocol: These and other compounds were tested on live cells.
The experiment was conducted with one million cells of the bloodstream form of T. brucei. After over night treatment with different compounds (at concentrations of 50 and 100 μmolar), cells were counted and plotted with controls.

Nox2 = target: T1, Nox2 (Homo sapiens, UniProt P04839); test: H2O2 production, homovanillic acid assay, Cos-phox cells; assay type: cell-based; settings: phorbol 12-myristate 13-acetate stimulated, 1 hour 37° C.
T1 construct: expressed in transfected cells; host or cells: COS-phox cells
T1 sequence (P04839 2-570 limits assumed): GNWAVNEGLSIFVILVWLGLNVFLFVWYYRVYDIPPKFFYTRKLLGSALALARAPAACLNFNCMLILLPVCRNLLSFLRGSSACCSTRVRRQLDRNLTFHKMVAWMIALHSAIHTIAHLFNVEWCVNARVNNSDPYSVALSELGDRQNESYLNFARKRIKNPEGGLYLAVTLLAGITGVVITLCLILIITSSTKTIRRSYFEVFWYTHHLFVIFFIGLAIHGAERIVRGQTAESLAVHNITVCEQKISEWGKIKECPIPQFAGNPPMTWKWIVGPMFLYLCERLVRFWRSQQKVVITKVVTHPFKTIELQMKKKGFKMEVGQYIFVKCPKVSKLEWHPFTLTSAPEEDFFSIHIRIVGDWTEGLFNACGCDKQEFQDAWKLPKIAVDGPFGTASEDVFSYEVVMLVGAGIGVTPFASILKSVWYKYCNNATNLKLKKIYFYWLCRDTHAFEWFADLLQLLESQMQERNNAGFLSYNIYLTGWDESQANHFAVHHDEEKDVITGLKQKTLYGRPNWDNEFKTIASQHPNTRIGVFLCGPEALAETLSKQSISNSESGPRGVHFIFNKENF
T1 sequence (P13498 2-195 partner limits assumed): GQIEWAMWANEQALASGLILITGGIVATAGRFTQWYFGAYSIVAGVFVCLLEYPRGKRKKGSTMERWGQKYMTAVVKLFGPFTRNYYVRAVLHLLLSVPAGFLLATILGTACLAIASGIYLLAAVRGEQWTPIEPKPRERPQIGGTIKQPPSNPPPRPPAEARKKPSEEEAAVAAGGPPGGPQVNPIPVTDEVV
Protocol: After 1 hour incubation at 37° C., the reaction was stopped and H2O2 production was measured using the homovanillic acid assay. The ability of these drugs to inhibit production of H2O2 is shown as a percentage relative to the untreated control (100%). […] Optimal Nox2 activity requires phorbol 12-myristate 13-acetate stimulation whereas Nox4 activity is constitutive.
H2O2 release was measured using the homovanillic acid assay as described previously (Martyn, 2006). Briefly, 1.5-1.75×10^5 cells/well of a 12-well plate were seeded. The following day, cells were washed once with Hank's balanced salt solution and then preincubated for 15 minutes with either gentian violet (10-20 nM) or brilliant green (0.5-1.0 μM) in 1 ml of media. The cells were then washed once with Hank's balanced salt solution. Gentian violet or brilliant green was added at the same concentrations as in pretreatment to 0.5 ml of homovanillic acid assay solution (100 μM homovanillic acid assay, 4 U/ml horseradish peroxidase in Hank's balanced salt solution with Ca^2+ and Mg^2+) and incubated with the cells for 1 hour at 37° C. Cos-phox cells were additionally stimulated with 0.4 μg/ml phorbol 12-myristate 13-acetate. […] Fluorescence was read on a BioTek Synergy HT (BioTek Instruments Inc., Winooski, Vermont, […].) with an excitation of 320 nm and emission of 440 nm.

[2] = ESR spectrum with superoxide dismutase; settings: room temperature ESR, conditions as in Li et al.
Protocol: Li used ESR to confirm the production of NADPH-dependent.O2—by isolated endosomes (Li et al., Molecular and Cellular Biology, January 2006, p. 140-154, 26(1):140-154 (2006)). ESR assays were conducted at room temperature using a Bruker model EMX ESR spectrometer (Bruker). Vesicular fractions from each sample were mixed with the spin trap, 50 mM 5,5-dimethyl-1-pyrroline N-oxide (DMPO), in a total volume of 500 μl of PBS, pH 7.4. This solution contained iminodiacetic acid-chelating resin (10 ml/liter; Sigma-Aldrich). The reaction was initiated by adding NADPH to 100 μM and was immediately placed into the ESR spectrometer. DMPO-hydroxyl radical adduct formation was assayed for 10 min. Instrument settings were as follows: receiver gain, 1×10^6; modulation frequency, 100 kHz; microwave power, 40.14 mW; modulation amplitude, 1.0 G; and sweep rate, 1 G/s.

ang-2 mRNA = test: Quantitative reverse transcription-PCR for ang-2 in bEnd.3 cells; assay type: cell-based, murine; settings: 6.5 hours
Protocol: bEnd.3 cells were seeded equally into six T-75 flasks and 24 hours later were treated with 0, 1, 5, 10, 15, and 20 μM concentrations of gentian violet (Sigma-Aldrich, no. G2039) in ethanol for 6.5 hours. RNA was extracted and purified using TRI reagent (Sigma-Aldrich, T9424) and measured using spectrophotometer (Perkin-Elmer UV/VIS, Wellesley, Mass.). RNA (1 μg) was used for DNase Amplification (Invitrogen, no. 18068-015, Carlsbad, Calif.) followed by first-strand synthesis for reverse transcription-PCR (Invitrogen SuperScript, no. 12371-019). 96-well Optical Reaction Plate (ABI PRISM, no. 128, Applied Biosystems, Foster City, Calif.) was used for the reverse transcription-PCR reaction. A measure of 2.5 μl of template, which had been diluted 1:10 in crosslinked water, was used in each well and the experiment was performed in triplicate. Ang pt2 (Applied Biosystems, Taqman Gene Expression Assay, Mm00545822_ml) and 18S (Applied Biosystems Taqman Gene Expression Assay, Hs99999901_sl) primers were used along with crosslinked molecular grade water (Cellgro, Mediatech, Inc., Herndon, Va.) and master mix (Applied Biosystems TaqMan Fast Universal PCR Master Mix (2^x)). The reaction was run on the 7900 Applied Biosystems Reader for Absolute Quantification for 96-well plates. C values were analyzed by ΔΔCt method, and the standard error of the mean was calculated (FIG. 3b). The same protocol was used for treatment with brilliant green (Sigma, no. B6756), except that the concentrations used were 0, 0.1, 0.25, 0.5, and 0.75 μM (FIG. 3a).

In the case of CN(C)c1ccc(C(=C2C=CC(=[N+](C)C)C=C2)c2ccc(N(C)C)cc2)cc1 [Gentian Violet (GV), hexamethyl pararosaniline chloride], the IC50 ([1]; Trypanosoma brucei, bloodstream form of T. brucei) is reported as under 20 nM, the “cell survival after over night treatment” value ([1]; one million cells, 50 and 100 μmolar) is reported as “All cells died” and the “inhibition of Nox2 activity (H2O2 production)” value (Nox2) is reported as “inhibited”. The “radical formation with superoxide (ESR)” value [2] was “appear to form a radical by reacting with superoxide”, the “ang2 expression compared to control” value (ang-2 mRNA; 1 and 5 μM) was “increased” and the “inhibition of ang-2 mRNA” value (ang-2 mRNA; higher concentrations (above 5 μM, up to 20 μM)) was 70-90%.
